Assay results taken from PMC8669712, “G Protein-Coupled Receptor GPR35 Suppresses Lipid Accumulation in Hepatocytes” (ACS Pharmacology & Translational Science, 2021).
“Also recorded” adds a separate entry of the source.

Legend:
[1] = tested on: hepatocytes from hGPR35a-HA-expressing mice; test: Oil Red O lipid accumulation in hepatocytes from hGPR35a-HA-expressing mice; type: cell-based, mouse
Protocol: All mice were bred as WT or homozygous onto a C57BL/6N background. Animals were cared for in accordance with national guidelines on animal experimentation. All animal experiments were conducted under a home office license held by the authors. WT, humanized GPR35a, or KO male mice at 3–4 months of age were used in this study. These mice were fed ad libitum with a standard mouse chow diet. Briefly, mouse primary hepatocytes were isolated using a two-step collagenase perfusion technique.[45] Twelve-well plates or xCELLigence E plates were coated with rat tail collagen I solution (Thermo Fisher Scientific) overnight at 37 °C and washed with PBS. Isolated primary hepatocytes were seeded onto 12-well plates (8 × 10^4 cells/well) or xCELLigence E plates (2 × 10^4 cells/well) in Wiliam’s E medium (Thermo Fisher Scientific) supplemented with 10% fetal bovine serum (FBS) and 1× penicillin/streptomycin. Cells were maintained for 7 days with a fresh medium change every other day. […] Human GPR35 activation was examined using xCELLigence RTCA assay. To access the impact of GPR35 agonists on the lipid accumulation, WT and humanized GPR35 hepatocytes were incubated with T0901317 and/or GPR35 agonists/antagonists, as indicated (in DMEM medium containing 5% FBS and 1.5% BSA) for 48 h. Alternatively, GPR35 KO hepatocytes were incubated with drugs, as indicated for 5 days. In the T0901317 pretreatment model, human GPR35 hepatocytes were stimulated with T0901317 for 2 days and then further treated with lodoxamide for a further 3 days. After each drug treatment, hepatocytes were stained with Oil Red O and quantified as described. Each experiment was repeated at least three times.
Lipid accumulation was measured by Oil Red O staining. A working solution of Oil Red O was prepared, as described with modification.[46] After drug treatment, cells were washed with PBS and fixed with formalin solution for 1 h at 4 °C. Then, cells were stained with Oil Red O working solution for 10 min at room temperature. After PBS washing, Oil Red O was extracted from cells using 150 μl of isopropanol and OD510 nm measured. After the lipid extraction, cells were further soaked in PBS overnight at 4 °C. These cells were then stained with Hoechst 33342 (1 μg/mL) and the fluorescence intensity of Hoechst (represents the DNA content in cells) was measured using a CLARIOstar plate reader (BMG LABTECH). Oil Red O accumulation was corrected for differences in DNA content and expressed as relative absorbency, taking the control condition (treated with vehicle only) as 1.

HepG2 cells = test: Oil Red O staining of LXR (T0901317)-induced lipid accumulation in HepG2 cells; type: cell-based, human
Protocol: Human hepatocellular carcinoma HepG2 cells were grown in Minimum Essential Medium (MEM) supplemented with 10% fetal bovine serum (FBS), 2 mM L-glutamine, 1× non-essential amino acid, 1 mM sodium pyruvate, and 1× penicillin/streptomycin. Materials for cell culture were all from Sigma-Aldrich (St. Louis, MO) or Thermo Fisher Scientific (Waltham, MA). Cells were incubated in a humidified CO2 incubator at 37 °C. […] Cells were seeded onto a 12-well plate (1 × 10^5 cells/well) for 24 h prior to drug treatment. […] Lipid accumulation was measured by Oil Red O staining.

[2] = tested on: GPR35 genome-edited HepG2 clones; test: Label-free cellular impedance assay in GPR35 genome-edited HepG2 clones 19 and 27; type: cell-based, human; details: 1 × 10^–5 M
Excerpt: Expression of full-length mRNA from the GPR35 gene was eliminated using a dual synthetic gRNA/RNP approach[43] with one guide cutting the intron and one in the exon region to generate a nonfunctional GPR35 protein. The gRNAs were designed with the CRISPR Finder (Welcome Sanger Institute). HepG2 cells were transfected with the Neon Transfection System from Thermo Fisher Scientific (Waltham, MA), according to the manufacturer’s instructions. Briefly, CrRNA and tracrRNA were annealed to gRNA at 95 °C for 5 min. Next, cells were transfected with gRNA, Cas9, and the electroporation enhancer, according to the manufacturer’s instructions. All crRNAs, tracrRNA, SpCas9 nuclease, and the electroporation enhancer were purchased from Integrated DNA Technologies (Coralville, IA). Transfected cells were plated and analyzed for editing efficiency 24–48 h after electroporation. Single-cell clones were generated by single-cell FACS sorting. Clones were expanded and to access editing efficiency, genomic DNA from cell clones was extracted and subjected to PCR to confirm the genome deletion. To further quantify and capture the genomic DNA deletion, PCR primers listed in Table S1 were designed to amplify the genomic DNA surrounding the target site. The PCR primers were linked to the sequences of the Illumina Nextera adapters. The amplified PCR products were subjected to paired-end sequencing using NextSeq500 from Illumina using paired-end chemistry with a 150-bp read length. In addition, mRNA from KO clones was isolated and subjected to RT-PCR. To further confirm the abrogation of GPR35 activation in CRISPR KO clones, KO cells were seeded onto xCELLigence E plates (2 × 10^4 cells/well) for 24 h at 37 °C prior to the treatment of GPR35 agonists. The impedance was recorded using xCELLigence RTCA. […]
HepG2 cells were seeded onto xCELLigence E plates (2 × 10^4 cells/well) and incubated for 24 h at 37 °C. […] After the addition of GPR35 agonist or vehicle control, the impedance (represented as “cell index”) was recorded every 30 s over a 2 h period using xCELLigence RTCA (Agilent). […]

[3] = tested on: clone 27 HepG2 cells transfected with human GPR35a; test: Cellular impedance in clone 27 cells transiently transfected with human GPR35a; type: cell-based; details: lodoxamide 1 × 10^–8 M
Protocol: Briefly, CRISPR KO cells were transiently transfected 24 h with the human GPR35a expression vector using LipofectAMINE 3000 reagent, according to the manufacturer’s instructions. […] Alternatively, after 24 h transfection, cells were seeded onto a 12-well plate (1 × 10^5 cells/well) for 24 h at 37 °C. Then, cells were incubated with T0901317 and/or GPR35 agonists (in MEM containing 5% FBS) for 72 h. After the drug treatment, cells were stained with Oil Red O to examine the levels of lipid accumulation. Each experiment was repeated at least three times.
HepG2 cells were seeded onto xCELLigence E plates (2 × 10^4 cells/well) and incubated for 24 h at 37 °C. To evaluate GPR35 activation and its downstream G protein signaling, HepG2 cells or primary mouse hepatocytes were exposed to GPR35 antagonists or G protein inhibitors 1 h (overnight for Pertussis toxin) prior to GPR35 agonist stimulation. After the addition of GPR35 agonist or vehicle control, the impedance (represented as “cell index”) was recorded every 30 s over a 2 h period using xCELLigence RTCA (Agilent). Each experiment was repeated at least three times.

EC50 (HepG2 cells; Homo sapiens, co-incubation with T0901317 4 × 10^–6 M, 48 h, Oil Red O, read-out: EC50 for reduction in the lipid accumulation induced by T0901317): 95 nM
Structure (SMILES): N#Cc1cc(NC(=O)C(=O)O)c(Cl)c(NC(=O)C(=O)O)c1 [lodoxamide, 2-[2-chloro-5-cyano-3-(oxaloamino)anilino]-2-oxoacetic acid]
EC50 ([1]; Mus musculus, Hepatocyte, hepatocytes from hGPR35a-HA-expressing mice, co-addition with T0901317 8 × 10^–6 M, 48 h, read-out: EC50 for prevention of T0901317-induced lipid accumulation): 17 nM
reversal of pre-established lipid accumulation ([1]; T0901317 8 × 10^–6 M for 2 days, then lodoxamide added with continued T0901317): sufficient to reduce lipid levels to those observed in the absence of T0901317; also recorded: reduced to basal
potency in the reversal setting relative to co-addition ([1]; T0901317 pretreatment model): less potent than when added alongside T0901317
effect on basal lipid accumulation without co-addition of T0901317 (HepG2 cells; 1 × 10^–5 M): no significant effect
effect of T0901317 on lipid accumulation at maximally effective concentrations of lodoxamide (HepG2 cells; T0901317 4 × 10^–6 M, 48 h): fully suppressed
impedance signal in GPR35 genome-edited clones 19 and 27 [2]: not in either clone 19 or 27
impedance signal in clone 27 cells transfected with human GPR35a [3]: stimulated signal
